Source: patent publication US12371428B2 (Exelixis, Inc., priority 2019, dated 2025)
Counter-ions that a name gives are not always drawn.

Columns and labels:
[1] = target: Met (phospho-Met, HGF-stimulated PC-3 prostate cancer cells) (Homo sapiens (Human), UniProt P08581); assay: Met autophosphorylation ELISA in PC-3 cells (Example F); type: cell-based; conditions: cellular activity; Met autophosphorylation ELISA in PC-3 cells; read-out: c-Met IC50
Summary of the method: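 Serum-starved (3 h) PC-3 cells were treated 1 h with compounds (8-point curve, 0.3% DMSO), then stimulated with 100 ng/mL human HGF for 10 min. Lysate phospho-Met (panTyr) was measured by sandwich ELISA, normalised to DMSO and reference-inhibitor controls. IC50 came from 4-parameter logistic fit.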

[2] = target: Human MER (residues 528-999) (Homo sapiens (Human), UniProt Q12866); assay: Human Mer kinase assay, HTRF KinEase (Example C-2); type: biochemical; conditions: protocol of Example C-2 (other compounds)
Summary of the method: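 HTRF KinEase TK assay with MER 528-999 (1 ng/well) in enzymatic buffer plus 5 mM MgCl2 and 1 mM DTT, biotinylated peptide substrate and ATP at Km (40 μM), 3% DMSO final, 60 min at room temperature. Stopped with EDTA detection mix (SA-XL665, TK antibody-Eu3+), read at 665/620 nm after 60 min; IC50 from 10-point 4-parameter fit, normalized to DMSO and 1 μM reference.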

[3] = target: Mer (phospho-Mer, MERTK-transfected 293A cells) (Homo sapiens (Human), UniProt Q12866); assay: Mer autophosphorylation ELISA in transient transfected 293A cells (Example H); type: cell-based; conditions: cellular activity; Mer autophosphorylation ELISA in transient transfected 293A cells
Summary of the method: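 Human MERTK transiently transfected into 293A cells; compounds as 8-point dose curve in serum-free medium (0.3% DMSO final), 1 h. Lysates assayed by phospho-Mer sandwich ELISA against phospho-Mer standard; DMSO = 100%, reference inhibitor = 0% activity; IC50 from 4-parameter logistic fit.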

[4] = target: Human KDR (residues 790-1356) (Homo sapiens (Human), UniProt P35968); assay: Human KDR kinase assay, HTRF KinEase (Example B-2); type: biochemical; conditions: protocol of Example B-2 (other compounds)
Summary of the method: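 Human KDR residues 790-1356 (0.1 ng/well) in buffer with 5 mM MgCl2, 1 mM MnCl2, 1 mM DTT, biotinylated peptide substrate, ATP at Km (4.0 μM), 3% DMSO, 10 compound concentrations; 40 min, room temperature. EDTA stop, streptavidin-XL665/Eu-TK antibody HTRF read 665/620 nm; 4-parameter IC50.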

Sequence of Mer (phospho-Mer, MERTK-transfected 293A cells) (Q12866 21-999): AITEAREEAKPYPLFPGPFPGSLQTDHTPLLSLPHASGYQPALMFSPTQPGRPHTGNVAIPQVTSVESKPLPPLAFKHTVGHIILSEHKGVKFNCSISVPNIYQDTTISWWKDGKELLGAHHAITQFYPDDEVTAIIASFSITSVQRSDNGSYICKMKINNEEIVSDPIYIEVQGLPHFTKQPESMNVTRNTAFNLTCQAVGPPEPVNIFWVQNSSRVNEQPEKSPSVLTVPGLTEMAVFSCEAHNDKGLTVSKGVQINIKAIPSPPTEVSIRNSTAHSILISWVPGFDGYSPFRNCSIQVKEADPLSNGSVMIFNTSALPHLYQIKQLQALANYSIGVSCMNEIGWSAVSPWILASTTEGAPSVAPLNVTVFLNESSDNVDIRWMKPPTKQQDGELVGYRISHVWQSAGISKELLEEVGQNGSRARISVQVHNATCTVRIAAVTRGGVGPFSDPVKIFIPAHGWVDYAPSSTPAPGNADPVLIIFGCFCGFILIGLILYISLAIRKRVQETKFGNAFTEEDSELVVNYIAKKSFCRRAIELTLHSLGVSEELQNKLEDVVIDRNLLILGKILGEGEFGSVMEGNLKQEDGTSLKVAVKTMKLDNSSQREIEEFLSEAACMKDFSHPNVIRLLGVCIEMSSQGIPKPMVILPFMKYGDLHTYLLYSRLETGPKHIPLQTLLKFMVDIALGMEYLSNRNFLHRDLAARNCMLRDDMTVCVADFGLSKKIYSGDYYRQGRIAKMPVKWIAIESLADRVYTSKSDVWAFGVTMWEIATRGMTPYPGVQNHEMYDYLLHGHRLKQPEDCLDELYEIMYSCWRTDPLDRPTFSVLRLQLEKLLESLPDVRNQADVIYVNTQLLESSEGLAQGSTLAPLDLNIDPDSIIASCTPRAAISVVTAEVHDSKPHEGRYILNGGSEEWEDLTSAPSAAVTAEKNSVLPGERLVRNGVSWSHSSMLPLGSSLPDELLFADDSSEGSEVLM
Sequence of Human KDR (residues 790-1356) (P35968 790-1356): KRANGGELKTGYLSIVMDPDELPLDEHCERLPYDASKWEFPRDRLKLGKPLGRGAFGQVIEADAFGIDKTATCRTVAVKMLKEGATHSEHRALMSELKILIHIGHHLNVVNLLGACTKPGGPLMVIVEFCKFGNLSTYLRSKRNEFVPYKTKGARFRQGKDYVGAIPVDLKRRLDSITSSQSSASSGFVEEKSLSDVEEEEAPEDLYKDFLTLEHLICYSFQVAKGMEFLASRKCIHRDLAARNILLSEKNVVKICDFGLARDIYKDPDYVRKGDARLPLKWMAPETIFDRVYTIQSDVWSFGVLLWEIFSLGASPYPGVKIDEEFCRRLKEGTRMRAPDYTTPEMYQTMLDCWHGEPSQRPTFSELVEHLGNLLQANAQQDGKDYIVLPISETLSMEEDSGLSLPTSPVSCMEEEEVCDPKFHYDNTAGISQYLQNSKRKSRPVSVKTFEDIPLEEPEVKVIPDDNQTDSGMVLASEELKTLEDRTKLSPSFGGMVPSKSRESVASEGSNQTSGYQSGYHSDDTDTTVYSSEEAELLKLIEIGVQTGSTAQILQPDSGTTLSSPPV
Sequence of Met (phospho-Met, HGF-stimulated PC-3 prostate cancer cells) (P08581 25-1390): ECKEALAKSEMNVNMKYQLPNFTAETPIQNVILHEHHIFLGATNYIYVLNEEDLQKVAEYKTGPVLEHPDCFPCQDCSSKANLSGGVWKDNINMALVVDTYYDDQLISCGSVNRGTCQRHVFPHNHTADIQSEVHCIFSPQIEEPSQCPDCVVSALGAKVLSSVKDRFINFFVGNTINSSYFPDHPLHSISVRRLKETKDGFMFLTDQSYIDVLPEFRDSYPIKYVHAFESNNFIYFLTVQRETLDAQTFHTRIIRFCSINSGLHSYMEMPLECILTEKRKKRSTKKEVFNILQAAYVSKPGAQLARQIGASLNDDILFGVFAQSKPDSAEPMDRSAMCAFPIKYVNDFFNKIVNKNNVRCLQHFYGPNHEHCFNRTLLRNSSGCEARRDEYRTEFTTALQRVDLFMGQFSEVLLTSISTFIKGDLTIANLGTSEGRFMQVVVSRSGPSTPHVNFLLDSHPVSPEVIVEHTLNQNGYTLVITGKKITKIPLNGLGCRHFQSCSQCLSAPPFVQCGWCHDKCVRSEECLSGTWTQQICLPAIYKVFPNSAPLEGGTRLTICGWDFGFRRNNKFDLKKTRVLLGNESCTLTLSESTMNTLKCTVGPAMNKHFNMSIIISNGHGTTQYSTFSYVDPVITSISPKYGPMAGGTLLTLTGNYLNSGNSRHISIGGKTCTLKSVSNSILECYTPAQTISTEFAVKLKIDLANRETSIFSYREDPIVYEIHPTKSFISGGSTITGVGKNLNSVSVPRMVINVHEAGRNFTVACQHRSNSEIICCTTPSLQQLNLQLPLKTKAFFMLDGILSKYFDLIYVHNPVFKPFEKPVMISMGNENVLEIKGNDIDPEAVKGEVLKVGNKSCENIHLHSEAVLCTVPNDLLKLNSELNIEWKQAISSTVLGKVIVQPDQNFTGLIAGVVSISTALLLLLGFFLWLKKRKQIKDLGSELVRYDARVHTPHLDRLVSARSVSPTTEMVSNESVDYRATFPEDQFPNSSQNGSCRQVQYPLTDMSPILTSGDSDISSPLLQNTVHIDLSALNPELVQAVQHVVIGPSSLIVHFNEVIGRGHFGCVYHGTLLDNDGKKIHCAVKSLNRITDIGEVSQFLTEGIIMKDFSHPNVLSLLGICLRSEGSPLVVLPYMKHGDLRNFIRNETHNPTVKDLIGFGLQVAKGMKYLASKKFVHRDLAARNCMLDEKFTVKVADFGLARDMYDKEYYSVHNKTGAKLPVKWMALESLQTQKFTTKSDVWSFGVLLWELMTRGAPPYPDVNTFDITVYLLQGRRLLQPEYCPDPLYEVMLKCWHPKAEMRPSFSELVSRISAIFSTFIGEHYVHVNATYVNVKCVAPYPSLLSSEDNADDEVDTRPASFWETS
Sequence of Human MER (residues 528-999) (Q12866 528-999): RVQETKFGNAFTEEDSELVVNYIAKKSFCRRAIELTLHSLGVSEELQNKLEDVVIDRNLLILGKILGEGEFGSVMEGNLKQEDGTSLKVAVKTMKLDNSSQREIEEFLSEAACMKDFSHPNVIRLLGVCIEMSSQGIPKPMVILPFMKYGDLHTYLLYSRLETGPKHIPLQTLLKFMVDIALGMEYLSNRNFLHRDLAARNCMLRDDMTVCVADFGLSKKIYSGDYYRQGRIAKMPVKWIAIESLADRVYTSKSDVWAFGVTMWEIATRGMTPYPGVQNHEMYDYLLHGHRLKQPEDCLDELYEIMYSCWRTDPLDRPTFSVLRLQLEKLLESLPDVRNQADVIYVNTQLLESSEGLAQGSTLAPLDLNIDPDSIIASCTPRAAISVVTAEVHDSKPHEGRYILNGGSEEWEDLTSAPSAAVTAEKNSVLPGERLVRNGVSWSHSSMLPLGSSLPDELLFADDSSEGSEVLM

Row | SMILES | IC50 [1] [nM] | IC50 [2] [nM] | IC50 [3] [nM] | IC50 [4] [nM]
1 | COc1cc2nccc(Oc3ccc(NC(=O)C4=C5CCCN5CC(c5ccc(F)cc5)C4=O)cc3F)c2nc1OC (racemic) [Compound 373, N-[4-[(6,7-dimethoxy-1,5-naphthyridin-4-yl)oxy]-3-fluorophenyl]-6-(4-fluorophenyl)-7-oxo-2,3,5,6-tetrahydro-1H-indolizine-8-carboxamide] | < 100 | < 100 | < 100 | > 300
2 | COc1cc2nccc(Oc3ccc(NC(=O)c4cn(C)cc(-c5ccccc5)c4=O)cc3)c2nc1OC [Compound 39, N-[4-[(6,7-Dimethoxy-1,5-naphthyridin-4-yl)oxy]phenyl]-1-methyl-4-oxo-5-phenylpyridine-3-carboxamide hydrochloride] | < 100 | < 100 | < 100 | < 100
3 | COc1cnc2c(Oc3ccc(NC(=O)c4cnc(C)n(-c5ccc(F)cc5)c4=O)cc3F)ccnc2c1 [Compound 265, N-[3-Fluoro-4-[(7-methoxy-1,5-naphthyridin-4-yl)oxy]phenyl]-1-(4-fluorophenyl)-2-methyl-6-oxopyrimidine-5-carboxamide] | < 100 | < 100 | < 100 | > 300
4 | COc1cc2nccc(Oc3ccc(NC(=O)c4cn(C)cc(-c5c(C)cc(F)cc5C)c4=O)cc3F)c2nc1OC [Compound 268, N-[4-[(6,7-Dimethoxy-1,5-naphthyridin-4-yl)oxy]-3-fluorophenyl]-5-(4-fluoro-2,6-dimethylphenyl)-1-methyl-4-oxopyridine-3-carboxamide] | < 100 | < 100 | < 100 | > 300
5 | COCc1c(-c2ccc(F)cc2)c(=O)c(C(=O)Nc2ccc(Oc3ccnc4cc(OC)c(OC)nc34)c(F)c2)cn1C [Compound 269, N-[4-[(6,7-Dimethoxy-1,5-naphthyridin-4-yl)oxy]-3-fluorophenyl]-5-(4-fluorophenyl)-6-(methoxymethyl)-1-methyl-4-oxopyridine-3-carboxamide] | < 100 | < 100 | < 100 | > 300
6 | CCn1cc(C(=O)Nc2ccc(Oc3ccnc4cc(OC)c(OC)nc34)c(F)c2)c(=O)c(-c2ccc(F)cc2)c1CO [Compound 271, N-[4-[(6,7-Dimethoxy-1,5-naphthyridin-4-yl)oxy]-3-fluorophenyl]-1-ethyl-5-(4-fluorophenyl)-6-(hydroxymethyl)-4-oxopyridine-3-carboxamide] | < 100 | < 100 | < 100 | < 100
7 | CCn1cc(C(=O)Nc2ccc(Oc3ccnc4cc(OC)c(OC)nc34)cc2)c(=O)c(-c2ccc(F)cc2)c1CO [Compound 272, N-[4-[(6,7-Dimethoxy-1,5-naphthyridin-4-yl)oxy]phenyl]-1-ethyl-5-(4-fluorophenyl)-6-(hydroxymethyl)-4-oxopyridine-3-carboxamide] | < 100 | < 100 | < 100 | 100 to 300
8 | Cc1ccc(C(=O)Nc2ccc(Oc3ccnc4cc(OCc5ccccc5)cnc34)c(F)c2)c(=O)n1-c1ccc(F)cc1 [Compound 275, 1-(4-Fluorophenyl)-N-[3-fluoro-4-[(7-phenylmethoxy-1,5-naphthyridin-4-yl)oxy]phenyl]-6-methyl-2-oxopyridine-3-carboxamide] | < 100 | < 100 | < 100 | 100 to 300
9 | Cc1nc(C)n(-c2ccc(F)cc2)c(=O)c1C(=O)Nc1ccc(Oc2ccnc3cc(OCc4ccccc4)cnc23)c(F)c1 [Compound 278, 1-(4-Fluorophenyl)-N-[3-fluoro-4-[(7-phenylmethoxy-1,5-naphthyridin-4-yl)oxy]phenyl]-2,4-dimethyl-6-oxopyrimidine-5-carboxamide] | < 100 | < 100 | < 100 | < 100

More lines, now with the values ahead:

Row | IC50 [1] [nM] | IC50 [2] [nM] | IC50 [3] [nM] | IC50 [4] [nM] | SMILES
10 | < 100 | < 100 | < 100 | > 300 | COc1cc2nccc(Oc3ccc(NC(=O)C4=C5CCCN5CC(c5ccc(F)cc5)C4=O)cc3F)c2nc1OC (single isomer, unassigned; enantiomer 1) [Compound 374, N-[4-[(6,7-dimethoxy-1,5-naphthyridin-4-yl)oxy]-3-fluorophenyl]-6-(4-fluorophenyl)-7-oxo-2,3,5,6-tetrahydro-1H-indolizine-8-carboxamide, enantiomer 1]
11 | 100 to 300 | < 100 | < 100 | 100 to 300 | COc1cc2nccc(Oc3ccc(NC(=O)c4cn(C)cc(-c5ccc(Cl)cc5)c4=O)cc3F)c2nc1OC [Compound 38, 5-(4-Chlorophenyl)-N-[4-[(6,7-dimethoxy-1,5-naphthyridin-4-yl)oxy]-3-fluorophenyl]-1-methyl-4-oxopyridine-3-carboxamide hydrochloride]
12 | < 100 | < 100 | < 100 | > 300 | COc1cnc2c(Oc3ccc(NC(=O)c4cn(C)cc(-c5ccccc5)c4=O)cc3F)ccnc2c1 [Compound 40, N-[3-Fluoro-4-[(7-methoxy-1,5-naphthyridin-4-yl)oxy]phenyl]-1-methyl-4-oxo-5-phenylpyridine-3-carboxamide hydrochloride]
13 | < 100 | < 100 | < 100 | > 300 | COc1cnc2c(Oc3ccc(NC(=O)c4ncc(C)n(-c5ccc(F)cc5)c4=O)cc3)ccnc2c1 [Compound 263, 4-(4-Fluorophenyl)-N-[4-[(7-methoxy-1,5-naphthyridin-4-yl)oxy]phenyl]-5-methyl-3-oxopyrazine-2-carboxamide]
14 | < 100 | < 100 | < 100 | > 300 | COc1ccc2nccc(Oc3ccc(NC(=O)c4ncc(C)n(-c5ccc(F)cc5)c4=O)cc3F)c2n1 [Compound 264, N-[3-Fluoro-4-[(6-methoxy-1,5-naphthyridin-4-yl)oxy]phenyl]-4-(4-fluorophenyl)-5-methyl-3-oxopyrazine-2-carboxamide]
15 | < 100 | < 100 | < 100 | > 300 | COc1cnc2c(Oc3ccc(NC(=O)c4cnc(C)n(-c5ccc(F)cc5)c4=O)cc3)ccnc2c1 [Compound 266, 1-(4-Fluorophenyl)-N-[4-[(7-methoxy-1,5-naphthyridin-4-yl)oxy]phenyl]-2-methyl-6-oxopyrimidine-5-carboxamide]
16 | 100 to 300 | < 100 | < 100 | > 300 | COCc1c(-c2ccc(F)cc2)c(=O)c(C(=O)Nc2ccc(Oc3ccnc4cc(OC)cnc34)c(F)c2)cn1C [Compound 270, N-[3-Fluoro-4-[(7-methoxy-1,5-naphthyridin-4-yl)oxy]phenyl]-5-(4-fluorophenyl)-6-(methoxymethyl)-1-methyl-4-oxopyridine-3-carboxamide]
17 | < 100 | < 100 | < 100 | > 300 | CCn1cc(C(=O)Nc2ccc(Oc3ccnc4cc(OC)cnc34)c(F)c2)c(=O)c(-c2ccc(F)cc2)c1CO [Compound 273, 1-Ethyl-N-[3-fluoro-4-[(7-methoxy-1,5-naphthyridin-4-yl)oxy]phenyl]-5-(4-fluorophenyl)-6-(hydroxymethyl)-4-oxopyridine-3-carboxamide]
18 | < 100 | < 100 | < 100 | > 300 | CCn1cc(C(=O)Nc2ccc(Oc3ccnc4cc(OC)cnc34)cc2)c(=O)c(-c2ccc(F)cc2)c1CO [Compound 274, 1-Ethyl-5-(4-fluorophenyl)-6-(hydroxymethyl)-N-[4-[(7-methoxy-1,5-naphthyridin-4-yl)oxy]phenyl]-4-oxopyridine-3-carboxamide]
19 | 100 to 300 | < 100 | < 100 | > 300 | COc1ccc2nccc(Oc3ccc(NC(=O)c4ccc(C)n(-c5ccc(F)cc5C)c4=O)cc3)c2n1 [Compound 276, 1-(4-Fluoro-2-methylphenyl)-N-[4-[(6-methoxy-1,5-naphthyridin-4-yl)oxy]phenyl]-6-methyl-2-oxopyridine-3-carboxamide]
20 | < 100 | < 100 | < 100 | 100 to 300 | Cc1nc(C)c(-c2ccc(F)cc2)c(O)c1C(=O)Nc1ccc(Oc2ccnc3cc(OCc4ccccc4)cnc23)c(F)c1 [Compound 277, 5-(4-Fluorophenyl)-N-[3-fluoro-4-[(7-phenylmethoxy-1,5-naphthyridin-4-yl)oxy]phenyl]-4-hydroxy-2,6-dimethylpyridine-3-carboxamide]
